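Cultured in 96-well plates, cells were exposed to test compound for 48 hours across five concentrations. GI50 marks 50% less growth.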 Active and inactive are the calls of the source. Rule as the data show it: active = GI50 up to about 1.1 µM and inactive = higher.
How the values were obtained:
Assay in all cases: NCI tumour cell line growth inhibition, 48 h
ACHN = tested on: ACHN
BT-549 = tested on: BT-549
HL-60 = tested on: HL-60
Hs-578T = tested on: Hs-578T
M14 = tested on: M14
MCF7 = tested on: MCF7
MDA-MB-231 = tested on: MDA-MB-231
MDA-MB-435 = tested on: MDA-MB-435
MDA-N = tested on: MDA-N
NCI-H460 = tested on: NCI-H460
SF-539 = tested on: SF-539
SR = tested on: SR
T47D = tested on: T47D
TK-10 = tested on: TK-10
786-0 = tested on: 786-0
NCI/ADR-RES = tested on: NCI/ADR-RES
OVCAR-8 = tested on: OVCAR-8

| Compound | GI50 (ACHN) | GI50 (BT-549) | GI50 (HL-60) | GI50 (Hs-578T) | GI50 (M14) | GI50 (MCF7) | GI50 (MDA-MB-231) | GI50 (MDA-MB-435) | GI50 (MDA-N) | GI50 (NCI-H460) | GI50 (SF-539) | GI50 (SR) | GI50 (T47D) | GI50 (TK-10) | GI50 (786-0) | GI50 (NCI/ADR-RES) | GI50 (OVCAR-8) |
| --- | --- | --- | --- | --- | --- | --- | --- | --- | --- | --- | --- | --- | --- | --- | --- | --- | --- |
| COC(=O)C1=C(O)C(C(=O)OC)[C@]2(O)[C@@H](C(=O)OC)[C@H]1C[C@@H](c1ccccc1)[C@@H]2C(=O)OC (stereo not given in full) | 17.9 µM (inactive) | 15.8 µM (inactive) | 19.6 µM (inactive) | 17.2 µM (inactive) | 10.8 µM (inactive) | 5.93 µM (inactive) | 16.1 µM (inactive) | 7.71 µM (inactive) | 5.01 µM (inactive) | 14 µM (inactive) | 12.6 µM (inactive) | 4.17 µM (inactive) | 27.6 µM (inactive) | 23.7 µM (inactive) | – | – | – |
| Cc1c(OCc2ccccc2)c(=O)ccn1CCc1c[nH]c2ccccc12 | > 100 µM (inactive) | 44.6 µM (inactive) | – | 27.2 µM (inactive) | 30 µM (inactive) | 18.5 µM (inactive) | 34.1 µM (inactive) | 20 µM (inactive) | 28.7 µM (inactive) | 33.7 µM (inactive) | 43.4 µM (inactive) | 27.6 µM (inactive) | 17.3 µM (inactive) | 40.6 µM (inactive) | 33.9 µM (inactive) | 86.7 µM (inactive) | 53 µM (inactive) |
| O=C(N/N=C/C=C/c1ccc([N+](=O)[O-])o1)c1ccc(Br)s1 | 16.3 µM (inactive) | 25.3 µM (inactive) | 34.1 µM (inactive) | 6.73 µM (inactive) | 20.4 µM (inactive) | 16.3 µM (inactive) | 22.8 µM (inactive) | 25.4 µM (inactive) | 20.6 µM (inactive) | 42.7 µM (inactive) | 26.8 µM (inactive) | – | 28.4 µM (inactive) | 20 µM (inactive) | 19.1 µM (inactive) | 25.1 µM (inactive) | 16.9 µM (inactive) |
| O=C1Oc2ccc([N+](=O)[O-])cc2N/C1=C\C(=O)c1ccccc1 | > 100 µM (inactive) | > 100 µM (inactive) | 62.4 µM (inactive) | > 100 µM (inactive) | > 100 µM (inactive) | > 100 µM (inactive) | 51.8 µM (inactive) | > 100 µM (inactive) | > 100 µM (inactive) | > 100 µM (inactive) | – | 74.1 µM (inactive) | 97.5 µM (inactive) | 25.1 µM (inactive) | 52.6 µM (inactive) | > 100 µM (inactive) | > 100 µM (inactive) |
| CN1CC=C(c2cccn2C)CC1 | > 100 µM (inactive) | > 100 µM (inactive) | > 100 µM (inactive) | > 100 µM (inactive) | > 100 µM (inactive) | > 100 µM (inactive) | > 100 µM (inactive) | > 100 µM (inactive) | > 100 µM (inactive) | – | – | > 100 µM (inactive) | > 100 µM (inactive) | > 100 µM (inactive) | > 100 µM (inactive) | > 100 µM (inactive) | > 100 µM (inactive) |
| CC(=O)OC(C(=O)O)C(OC(C)=O)C(OC(C)=O)C(OC(C)=O)C(=O)O (stereo not given) | – | > 100 µM (inactive) | > 100 µM (inactive) | > 100 µM (inactive) | > 100 µM (inactive) | > 100 µM (inactive) | > 100 µM (inactive) | > 100 µM (inactive) | > 100 µM (inactive) | > 100 µM (inactive) | > 100 µM (inactive) | > 100 µM (inactive) | – | > 100 µM (inactive) | – | > 100 µM (inactive) | > 100 µM (inactive) |
| O=Cc1cn(CCCCCCCCn2cc(C=O)c3ccccc32)c2ccccc12 | > 10 µM (inactive) | – | 5.46 µM (inactive) | 6.49 µM (inactive) | > 10 µM (inactive) | 7.13 µM (inactive) | > 10 µM (inactive) | > 10 µM (inactive) | > 10 µM (inactive) | 0.561 µM (active) | > 10 µM (inactive) | 9.57 µM (inactive) | 3.91 µM (inactive) | > 10 µM (inactive) | – | 5.15 µM (inactive) | > 10 µM (inactive) |
| COP(=O)(OC)[C@H](O)[C@H]1C[C@@H]1c1ccccc1 | > 100 µM (inactive) | > 100 µM (inactive) | > 100 µM (inactive) | 18.9 µM (inactive) | > 100 µM (inactive) | > 100 µM (inactive) | > 100 µM (inactive) | > 100 µM (inactive) | – | > 100 µM (inactive) | – | – | > 100 µM (inactive) | > 100 µM (inactive) | – | > 100 µM (inactive) | > 100 µM (inactive) |
| COP(=O)(OC)C(Cc1cn(C(C)=O)c2ccccc12)C(=O)O (stereo not given) | > 100 µM (inactive) | – | > 100 µM (inactive) | > 100 µM (inactive) | > 100 µM (inactive) | 8.26 µM (inactive) | > 100 µM (inactive) | – | > 100 µM (inactive) | > 100 µM (inactive) | – | > 100 µM (inactive) | > 100 µM (inactive) | > 100 µM (inactive) | – | > 100 µM (inactive) | > 100 µM (inactive) |
| CCP(=O)(CC)C(Cl)Cl | > 100 µM (inactive) | – | > 100 µM (inactive) | > 100 µM (inactive) | > 100 µM (inactive) | > 100 µM (inactive) | > 100 µM (inactive) | > 100 µM (inactive) | > 100 µM (inactive) | > 100 µM (inactive) | – | > 100 µM (inactive) | > 100 µM (inactive) | > 100 µM (inactive) | – | > 100 µM (inactive) | > 100 µM (inactive) |
| O=C(O)CSCc1cc2c(O)c(c1)Cc1cc(CSCC(=O)O)cc(c1O)Cc1cc(CSCC(=O)O)cc(c1O)Cc1cc(CSCC(=O)O)cc(c1O)C2 | > 100 µM (inactive) | 29 µM (inactive) | > 100 µM (inactive) | > 100 µM (inactive) | > 100 µM (inactive) | > 100 µM (inactive) | – | 61.1 µM (inactive) | > 100 µM (inactive) | > 100 µM (inactive) | > 100 µM (inactive) | > 100 µM (inactive) | > 100 µM (inactive) | > 100 µM (inactive) | > 100 µM (inactive) | > 100 µM (inactive) | > 100 µM (inactive) |
| CC(=O)O[C@H]1[C@@H]2OC(=O)[C@@](O)(CC3CCCO3)[C@@H]2CC(=O)[C@](C)(O)CC/C=C(\C)CCC[C@@H]1C (stereo not given in full) | 38.8 µM (inactive) | 26.2 µM (inactive) | 21.5 µM (inactive) | 63.4 µM (inactive) | 40.4 µM (inactive) | 24.7 µM (inactive) | 20.7 µM (inactive) | 31.7 µM (inactive) | 20.6 µM (inactive) | > 100 µM (inactive) | 19.1 µM (inactive) | – | 24.8 µM (inactive) | 40.8 µM (inactive) | 37.9 µM (inactive) | 57.9 µM (inactive) | 35.6 µM (inactive) |
| O=P1(N2CCOCC2)OCCO1 | > 100 µM (inactive) | – | > 100 µM (inactive) | > 100 µM (inactive) | > 100 µM (inactive) | > 100 µM (inactive) | – | > 100 µM (inactive) | > 100 µM (inactive) | > 100 µM (inactive) | – | > 100 µM (inactive) | – | – | > 100 µM (inactive) | > 100 µM (inactive) | – |
| CCOC(=O)/C(C(=O)Nc1ccc(Cl)cc1)=C(/N)N1CCCC1 | 45.6 µM (inactive) | > 100 µM (inactive) | > 100 µM (inactive) | > 100 µM (inactive) | > 100 µM (inactive) | > 100 µM (inactive) | > 100 µM (inactive) | > 100 µM (inactive) | > 100 µM (inactive) | > 100 µM (inactive) | > 100 µM (inactive) | – | > 100 µM (inactive) | > 100 µM (inactive) | > 100 µM (inactive) | > 100 µM (inactive) | > 100 µM (inactive) |
| NC[C@H]1Nc2ccccc2[C@@H](O)C1O (stereo not given in full) | > 100 µM (inactive) | – | > 100 µM (inactive) | > 100 µM (inactive) | > 100 µM (inactive) | > 100 µM (inactive) | > 100 µM (inactive) | > 100 µM (inactive) | > 100 µM (inactive) | > 100 µM (inactive) | > 100 µM (inactive) | > 100 µM (inactive) | > 100 µM (inactive) | > 100 µM (inactive) | > 100 µM (inactive) | > 100 µM (inactive) | > 100 µM (inactive) |
| O=C1Cc2c(-c3ccccc3)cc(-c3cccc(Cl)c3)nc2-c2ccccc2N1 | – | 6.61 µM (inactive) | 38.7 µM (inactive) | 2.09 µM (inactive) | 8.09 µM (inactive) | 2.22 µM (inactive) | 1.15 µM (inactive) | 8.91 µM (inactive) | 6.82 µM (inactive) | 1.2 µM (inactive) | 6.34 µM (inactive) | 37.9 µM (inactive) | 2.05 µM (inactive) | 1.49 µM (inactive) | – | 2.05 µM (inactive) | 1.61 µM (inactive) |
| CN(CCCCCl)P(=O)(OCC1=CC(=O)c2ccccc2C1=O)OC[C@H]1O[C@@H](n2cc(F)c(=O)[nH]c2=O)C[C@@H]1O (stereo not given in full) | < 0.01 µM (active) | 9.06 µM (inactive) | 0.69 µM (active) | < 0.01 µM (active) | 0.0897 µM (active) | < 0.01 µM (active) | 3.2 µM (inactive) | 0.684 µM (active) | 0.753 µM (active) | < 0.01 µM (active) | < 0.0244 µM (active) | – | – | 1.45 µM (inactive) | – | – | 0.0378 µM (active) |
| CCCCCc1cccc(=O)o1 | > 100 µM (inactive) | > 100 µM (inactive) | > 100 µM (inactive) | > 100 µM (inactive) | > 100 µM (inactive) | > 100 µM (inactive) | > 100 µM (inactive) | > 100 µM (inactive) | > 100 µM (inactive) | > 100 µM (inactive) | > 100 µM (inactive) | – | > 100 µM (inactive) | > 100 µM (inactive) | > 100 µM (inactive) | > 100 µM (inactive) | > 100 µM (inactive) |

Reference: ChEMBL document CHEMBL1201862, “PubChem BioAssay data set” (2004)
